Values after ≈ are worked out from the molar mass of the structure shown.
Experiments:
Enterobacter cloacae = assay: reference broth microdilution susceptibility assay; type: cell-based; conditions: Table III
Procedure, shortened: (§1)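 Susceptibility was tested by the reference broth microdilution method. Bacterial strains followed the NCCLS standard for aerobically growing bacteria (M7-A5), and yeasts followed the NCCLS broth dilution reference method for yeasts (M27-A).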

Micrococcus luteus = assay: reference broth microdilution susceptibility assay; type: cell-based; conditions: Table III
Procedure, shortened: (§2)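 Following NCCLS guidance, the yeasts C. albicans and C. neoformans were assayed under M27-A, whereas M. luteus and E. coli were assayed under M7-A5, in each case by broth microdilution.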

[1] = test system: Stenotrophomonas maltophilia; assay: reference broth microdilution susceptibility assay; type: cell-based; conditions: Table III
Procedure, shortened: as §1

Neisseria gonorrhoeae = assay: reference broth microdilution susceptibility assay; type: cell-based; conditions: Table III
Procedure, shortened: as §1

Enterococcus faecalis = assay: reference broth microdilution susceptibility assay; type: cell-based; conditions: Table III
Procedure, shortened: as §1

Streptococcus pneumoniae = assay: reference broth microdilution susceptibility assay; type: cell-based; conditions: Table III
Procedure, shortened: as §1

Escherichia coli = assay: reference broth microdilution susceptibility assay; type: cell-based; conditions: Table III
Procedure, shortened: as §2

Candida albicans = assay: reference broth microdilution susceptibility assay; type: cell-based; conditions: Table III
Procedure, shortened: as §2

Staphylococcus aureus = assay: reference broth microdilution susceptibility assay; type: cell-based; conditions: Table III
Procedure, shortened: as §1

Cryptococcus neoformans [2] = assay: reference broth microdilution susceptibility assay; type: cell-based; conditions: Table III
Procedure, shortened: as §2

tubulin [3] = assay: inhibition of [3H]colchicine binding to tubulin; conditions: 1.0 μM tubulin, 5.0 μM [3H]colchicine, inhibitor at 1.0 μM, 10 minutes at 37° C.
Procedure: (§3) Tubulin polymerization was evaluated by turbidimetry at 350 nm using Beckman DU7400/7500 spectrophotometers as described in detail elsewhere. […] Varying concentrations of drug were preincubated with 10 μM:M ([…]) purified tubulin (See Hamel, E., et al., Separation of Active Tubulin and Microtubule-associated Proteins by Ultracentrifiigation and Isolation of a Component Causing the Formation of Microtubule Bundles, Biochemistry 1984, 23, 4173-4184). Samples were chilled on ice, GTP (0.4 mM) was added, and polymerization was followed at 30° C. The parameter measured was extent of the reaction after 20 minutes. Coichicine binding was measured as described in detail previously. Reaction mixtures contained 1.0 μM :M tubulin, 5.0:M, [^3H]colchicine (from Dupont), and inhibitor at 1.0 μM:M. Incubation was for 10 minutes at 37° C.

purified tubulin [4] = test system: T1, purified tubulin; assay: inhibition of tubulin polymerization (turbidimetry); type: biochemical; conditions: 10 μM tubulin, GTP 0.4 mM, 30° C., extent after 20 minutes; read-out: Inhibition of polymerization IC50 ± S.D.
T1 construct: other: 10 μM tubulin, GTP 0.4 mM, 30° C., extent after 20 minutes
Procedure: as §3
Tubulin Evaluations: Tubulin polymerization was evaluated by turbidimetry at […] using Beckman DU7400/7500 spectrophotometers as known to one of skill in the art. Varying concentrations of the compound were preincubated with 10 μM. […]

[5] = test system: microtubules in human umbilical vein endothelial cells (HUVEC); assay: disruption of microtubules in HUVEC; type: cell-based
Description: HUVECs were isolated according to methods know to one of skill in the art (see Jaffe, E. A. et al., Culture of Human Endothelial Cells Derived From Umbilical Veins. Identification by Morphologic and Immunologic Criteria, J. Clin. Invest. 1973, 52, 2754-2756.)

Pancreas BXPC-3 = assay: human cancer cell growth inhibition, sulforhodamine B assay; type: cell-based; conditions: 48 hours
Procedure, shortened: (§4)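 NCI sulforhodamine B protocol: cells exposed to compounds for 48 h, then fixed with trichloroacetic acid, stained with sulforhodamine B and read on a microplate reader.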

Breast MCF-7 = assay: as above; type: cell-based; conditions: 48 hours
Procedure, shortened: as §4

Prostate DU-145 = assay: as above; type: cell-based; conditions: 48 hours
Procedure, shortened: as §4

Lung-NSC NCI-H460 = assay: as above; type: cell-based; conditions: 48 hours
Procedure, shortened: as §4

Colon KM20L2 = assay: as above; type: cell-based; conditions: 48 hours
Procedure, shortened: as §4

CNS SF268 = assay: as above; type: cell-based; conditions: 48 hours
Procedure, shortened: as §4

[6] = test system: human umbilical vein endothelial cells (HUVEC); assay: Matrigel cord formation assay; type: cell-based; conditions: at both 0.01 and 0.001 μg/mL compared to untreated controls
Procedure: In vitro Matrigel antiangiogenesis assays were implemented according to the Developmental Therapeutics Program NCI/NIH protocols known to one of skill in the art. Matrigel, a basement membrane matrix, was obtained from BD Biosciences. Growth inhibition and cord formation assays were Conducted using human umbilical vein endothelial cells obtained from GlycoTeCh. HUVEC cells were grown in EGM-2 medium.
An aliquot of sixty microliters was placed in each well of an ice-cold 96-well plate. The plates were then left for 15 minutes at room temperature, then incubated for 30 minutes at 37° C. to permit the matrigel to polymerize. Meanwhile, HUVEC cells were harvested and diluted to a concentration of 2×10^5 cells/ml. A solution of 100 μL containing the compounds to be tested was added next. After 24 hours incubation, pictures were taken for each concentration using an inverted Nikon Diaphot microscope and D100 digital camera. Drug effect was assessed, compared to untreated controls, by measuring the length of cords formed and number ofjunctions.

solubility in D2O = type: physicochemical; conditions: 1 mL D2O at 25° C.
tubulin [7] = conditions: earlier study, Lin et al. 1988; cited from earlier work
Cryptococcus neoformans [8] = conditions: previously shown, Pettit et al. 2000; cited from earlier work
[9] = earlier study, Lin et al. 1988; cited from earlier work
purified tubulin [10] = conditions: earlier study, Lin et al. 1988; cited from earlier work

Row | Compound | Range of minimum inhibitory concentration, Enterobacter cloacae (Enterobacter cloacae) | Range of minimum inhibitory concentration, Micrococcus luteus (Micrococcus luteus) | Range of minimum inhibitory concentration, Stenotrophomonas maltophilia [1] | Range of minimum inhibitory concentration, Neisseria gonorrhoeae (Neisseria gonorrhoeae) | Range of minimum inhibitory concentration, Enterococcus faecalis (Enterococcus faecalis) | Range of minimum inhibitory concentration, Streptococcus pneumoniae (Streptococcus pneumoniae) | Range of minimum inhibitory concentration, Escherichia coli (Escherichia coli) | Range of minimum inhibitory concentration, Candida albicans (Candida albicans) | Range of minimum inhibitory concentration, Staphylococcus aureus (Staphylococcus aureus) | Range of minimum inhibitory concentration, Cryptococcus neoformans (Cryptococcus neoformans [2]) | Inhibition of colchicine binding % inhibition ± S.D. (tubulin [3]) | IC50 (purified tubulin [4]) | ability to disrupt microtubules in HUVEC [5] | Human cancer cell line inhibition (GI50) Pancreas-a BXPC-3 (Pancreas BXPC-3; Table I) | Human cancer cell line inhibition (GI50) Breast adn MCF-7 (Breast MCF-7; Table I) | Human cancer cell line inhibition (GI50) Prostate DU-145 (Prostate DU-145; Table I) | Human cancer cell line inhibition (GI50) Lung-NSC NCI-H460 (Lung-NSC NCI-H460; Table I) | Human cancer cell line inhibition (GI50) Colon KM20L2 (Colon KM20L2; Table I) | Human cancer cell line inhibition (GI50) CNS SF268 (CNS SF268; Table I) | other results
1 | 3-Cloro-4,4′,5-trimethoxy-3′-hydroxy-Z-stilbene [Compound 12a] | * (no inhibition at 64 μg/ml) | 32 µg/mL | * (no inhibition at 64 μg/ml) | 16 µg/mL | * (no inhibition at 64 μg/ml) | 32 to 64 µg/mL | * (no inhibition at 64 μg/ml) | * (no inhibition at 64 μg/ml) | * (no inhibition at 64 μg/ml) | 64 µg/mL | 85 ± 4% | 1600 ± 300 nM | disrupt microtubules | 0.043 µg/mL | <0.001 µg/mL | <1 ng/mL | <0.001 µg/mL | 0.15 µg/mL | <1 ng/mL | 
2 | COc1ccc(/C=C\c2cc(F)c(OC)c(OC)c2)cc1O [Compound 11a, 3-Fluoro-4,4′,5-trimethoxy-3′-hydroxy-Z-stilbene] | * (no inhibition at 64 μg/ml) | 32 to 64 µg/mL | * (no inhibition at 64 μg/ml) | 32 µg/mL | * (no inhibition at 64 μg/ml) | 64 µg/mL | * (no inhibition at 64 μg/ml) | * (no inhibition at 64 μg/ml) | * (no inhibition at 64 μg/ml) | 64 µg/mL | 75 ± 6% | 1500 ± 200 nM | disrupt microtubules |  |  |  |  |  |  | GI50 (Pancreas BXPC-3; Homo sapiens, BXPC-3, Table I, read-out: Human cancer cell line inhibition (GI50) Pancreas-a BXPC-3): 0.016 µg/mL (≈ 0.0526 µM); GI50 (Breast MCF-7; Homo sapiens, MCF7, Table I, read-out: Human cancer cell line inhibition (GI50) Breast adn MCF-7): < 0.01 µg/mL; GI50 (Prostate DU-145; Homo sapiens, DU-145, Table I, read-out: Human cancer cell line inhibition (GI50) Prostate DU-145): < 0.01 µg/mL; GI50 (Lung-NSC NCI-H460; Homo sapiens, NCI-H460, Table I, read-out: Human cancer cell line inhibition (GI50) Lung-NSC NCI-H460): < 0.01 µg/mL; GI50 (Colon KM20L2; Homo sapiens, KM-20L2, Table I, read-out: Human cancer cell line inhibition (GI50) Colon KM20L2): 1.1 µg/mL (≈ 3.61 µM); GI50 (CNS SF268; Homo sapiens, SF-268, Table I, read-out: Human cancer cell line inhibition (GI50) CNS SF268): < 0.01 µg/mL; Cords length as well as junction numbers [6]: markedly reduced
3 | C1CCNCC1.C1CCNCC1.COc1ccc(/C=C\c2cc(I)c(OC)c(OC)c2)cc1OP(=O)(O)O [O] |  |  |  |  |  |  |  |  |  |  |  |  |  |  |  |  |  |  |  | Solubility (solubility in D2O): ≧4 mg/mL; human cancer cell line growth inhibition (GI50) Pancreas BXPC-3 (Pancreas BXPC-3; Table Ia): 0.32 µg/mL; human cancer cell line growth inhibition (GI50) Breast MCF-7 (Breast MCF-7; Table Ia): 6.5 ng/mL; human cancer cell line growth inhibition (GI50) Prostate DU-145 (Prostate DU-145; Table Ia): 2.9 ng/mL; human cancer cell line growth inhibition (GI50) Lung-NSC NCI-H460 (Lung-NSC NCI-H460; Table Ia): 3.6 ng/mL; human cancer cell line growth inhibition (GI50) Colon KM20L2 (Colon KM20L2; Table Ia): 0.51 µg/mL; human cancer cell line growth inhibition (GI50) CNS SF268 (CNS SF268; Table Ia): 4.4 ng/mL
4 | combretastatin A-3 [Compound 3a, reference compound] |  |  |  |  |  |  |  |  |  |  |  |  |  | 2.3 µg/mL | 0.49 µg/mL | 4.3 ng/mL | 0.19 µg/mL | 1.2 µg/mL | 8.3 ng/mL | activity relative to CA4 (1a) as an inhibitor of colchicine binding to tubulin (tubulin [7]): about one fifth as active; inhibition of growth of the pathogenic fungus Cryptococcus neoformans (Cryptococcus neoformans [8]): inhibited growth; activity relative to CA4 (1a) as an inhibitor of cell growth [9]: about one seventh as active; activity relative to CA4 (1a) as an inhibitor of tubulin assembly (purified tubulin [10]): about half as active
